Reference: paper PMC9867241, “Antioxidant and Cytotoxic Activity of New Polyphenolic Derivatives of Quinazolin-4(3H)-one: Synthesis and In Vitro Activities Evaluation” (Pharmaceutics, 2022)

Assays:
[1] = DPPH˙ radical scavenging assay
Method in brief: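 Compounds from 1 mg/mL DMSO stocks tested at various concentrations against DPPH˙, following Brand-Williams. Scavenging followed as absorbance decrease at 517 nm by spectrophotometer; triplicate determinations, averaged.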

[2] = NO˙ radical scavenging assay (Griess reaction); settings: PBS pH 7.4, sodium nitroprusside
Method in brief: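 Nitric oxide radicals were generated by decomposition of sodium nitroprusside in PBS at pH 7.4 in the presence of test compounds. Uncaptured NO˙ was detected by Griess reaction with sulfanilic acid and naphthyl ethylenediamine, forming an azo dye read at 546 nm.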

[3] = Ferric reducing antioxidant potential (FRAP) assay; parameters: concentration or dose not given beside the values
Protocol: In the ferric reducing antioxidant potential (FRAP) assay, in comparison with a blank sample prepared from DMSO mixed with FRAP reagent, the absorbance of the solutions was measured at λ = 593 nm. The compounds were tested according to a modified method proposed initially by Benzie and Strain [31]. Using Equation (4), we calculated the reducing antioxidant potential of 5a–d and 6a–d as a percentage of the activity of the reference compounds:(4) % of control activity=sample absorbance/reference absorbance×100
Ferrous ions resulting from the reduction of ferric ions in the presence of an antioxidant compound form a blue-colored complex (Fe^2+-TPTZ) at pH = 3.6 with tripyridyltriazine (2,4,6-tris(2-pyridyl)-s-triazine). The intensity of the blue complex formed is proportional to the number of ferrous ions. Compounds 5a, 5c and 5d expressed a good electron donation capacity.

[4] = Reducing power (RP) assay; parameters: concentration or dose not given beside the values
Protocol: Herein, the iron (III) is not free in the solution as it was in the FRAP assay and is complexed by cyanide ions. The evaluation of the reducing power (RP) was performed at a pH closer to neutral (pH = 6.6); this is different from the FRAP test, which is performed in an acidic environment. Against a blank sample, the absorbances were measured at λ = 700 nm. The followed protocol was based on the adaptation of previously reported protocols and was previously reported by our group. Using Equation (4), we calculated the reducing power of the 5a–d and 6a–d compounds as a percentage of the reference compounds activity.
The evaluated compounds can reduce ferricyanide to ferrocyanide, in the presence of ferric ions, resulting in the Perl’s Prussian which gives blue. The higher the percentage of reducing power, the higher was the absorbance that was measured due to a higher amount of colored complex resulting from the reaction.

[5] = Cupric reducing antioxidant capacity (CUPRAC) assay; parameters: concentration or dose not given beside the values
Protocol: The ability to donate electrons was evaluated for the compounds 5a–d and 6a–d, by the CUPRAC (CUPric reducing antioxidant capacity) method. The absorbance was measured against a blank sample, at λ = 450 nm. The assay was performed based on our group’s previous report by the adaptation of the initial report of Alam et al., Özyürek et al. and Apak et al.. With the use of Equation (4), the cupric ion reduction by compounds 5a–d and 6a–d was expressed as a percentage of the reference compound activity.
The Cu^2+ ions are reduced to Cu^+ ions by the electron-donating compounds. The Cu^+ ions are chelated by neocuproine, giving a colored complex with absorbance proportional to the quantity of Cu^+ ions that resulted.

[6] = Fe^2+ chelation assay (ferrozine competition)
Method in brief: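 Fe²⁺ chelation by competition with ferrozine, with absorbance read at 562 nm against a blank. Chelation % = (control − sample absorbance)/control absorbance × 100.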

[7] = Cu^2+ chelation assay (murexide competition)
Method in brief: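 Cu^2+ chelation measured spectrophotometrically by competition with the chromophoric chelator murexide. Chelation (%) calculated from the A485/A520 absorbance ratio of sample relative to control.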

With `CCn1c(SCC(=O)NN=C(C)c2ccc(O)cc2O)nc2ccccc2c1=O` [Compound 6c, N’-(1-(2,4-dihydroxyphenyl)ethylidene)-2-((3-ethyl-4-oxo-3,4-dihydroquinazolin-2-yl)thio)acetohydrazide] the IC50 [1] was over 30 µM, the “IC50 (DPPH˙ scavenging)” value [1] was over 15 µg/mL and the “% of DPPH˙ Scavenging” value ([1]; 1.25 µg/mL) was “- (- represents less than 5%)”. The “% of DPPH˙ Scavenging” value ([1]; 2.5 µg/mL) was “- (- represents less than 5%)”, the “% of DPPH˙ Scavenging” value ([1]; 3.75 µg/mL) was “- (- represents less than 5%)” and the “% of DPPH˙ Scavenging” value ([1]; 5 µg/mL) was “- (- represents less than 5%)”. For the same molecule, the “% of DPPH˙ Scavenging” value ([1]; 7.5 µg/mL) was “- (- represents less than 5%)”, the “% of DPPH˙ Scavenging” value ([1]; 10 µg/mL) was “- (- represents less than 5%)” and the “% of DPPH˙ Scavenging” value ([1]; 12.5 µg/mL) was 10.11%. The “% of DPPH˙ Scavenging” value ([1]; 15 µg/mL) was 14.89%, the “% of NO˙ Scavenged” value [2] was 30.62% and the “FRAP, % of Activity of Trolox” value ([3]; relative to Trolox) was 29.65%. The “FRAP, % of Activity of Ascorbic Acid” value ([3]; relative to ascorbic acid) was 25.85%, the “RP, % of Activity of Trolox” value ([4]; relative to Trolox) was 28.98% and the “RP, % of Activity of Ascorbic Acid” value ([4]; relative to ascorbic acid) was 19.89%. For the same molecule, the “CUPRAC, % of Activity of Trolox” value ([5]; relative to Trolox) was 29.09%, the “CUPRAC, % of Activity of Ascorbic Acid” value ([5]; relative to ascorbic acid) was 30.52% and the “Ferrous ions Chelation Capacity (%)” value ([6]; 17.70 µg/mL) was “- (- represents less than 5%)”. The “Ferrous ions Chelation Capacity (%)” value ([6]; 20.59 µg/mL) was “- (- represents less than 5%)”, the “Ferrous ions Chelation Capacity (%)” value ([6]; 29.41 µg/mL) was “- (- represents less than 5%)” and the “Ferrous ions Chelation Capacity (%)” value ([6]; 44.11 µg/mL) was “- (- represents less than 5%)”. The “Ferrous ions Chelation Capacity (%)” value ([6]; 58.82 µg/mL) was “- (- represents less than 5%)”, the “Ferrous ions Chelation Capacity (%)” value ([6]; 88.23 µg/mL) was “- (- represents less than 5%)” and the “Ferrous ions Chelation Capacity (%)” value ([6]; 117.64 µg/mL) was “- (- represents less than 5%)”. The “Ferrous ions Chelation Capacity (%)” value ([6]; 257.46 µg/mL) was “- (- represents less than 5%)”, the “Ferrous ions Chelation Capacity (%)” value ([6]; 343.28 µg/mL) was “- (- represents less than 5%)” and the “Cupric ions Chelation Capacity (%)” value ([7]; 3.36 µg/mL) was 7.47%. For the same molecule, the “Cupric ions Chelation Capacity (%)” value ([7]; 8.40 µg/mL) was 16.75% and the “Cupric ions Chelation Capacity (%)” value ([7]; 16.80 µg/mL) was 26.72%.
